Laboratory results reported in PMC10630888, “Nuclear ERK1/2 signaling potentiation enhances neuroprotection and cognition via Importinα1/KPNA2” (EMBO Molecular Medicine, 2023).
Several values for one entry are separate records, joined by “and”; a condition that tells them apart may be missing. Identical values can stand only once.

What was measured:
p-ERK in dorsal striatum = experiment: In vivo time course of striatal pERK after RB5; design: species or system mouse; settings: mice, acute systemic administration, 20 mg/kg i.p.
Protocol: For the dose response study, 2‐month‐old CD1 male mice were injected with different doses of RB5 (1, 2.5, 5, 10, and 20 mg/kg, i.p.), whereas the control group was injected with 20 mg/kg (i.p.) of SCR peptide. Mice were perfused 1 h later with 4% PFA. For the time course study, mice were injected i.p. with 20 mg/kg of RB5 and perfused at different time points with 4% PFA (1, 3, 6, and 12 h). The control group was injected i.p. with 20 mg/kg of SCR. Brains were postfixed in 4% PFA for 24 h and cryoprotected overnight in sucrose 30% before immunohistochemistry against phospho‐ERK1/2.
Immunohistochemistry was performed as described in Papale et al ([2016]). […]
For in vivo immunohistochemistry experiments, images were acquired from the dorsal striatum using a Leica DM IRB microscope under a 20× objective. The number of p‐ERK, p‐MSK‐1, p‐ELK, p‐MEK‐1, p‐VG K+, c‐Fos, and DARPP‐32 positive cells was counted in 2–3 consecutive sections per mouse, bilaterally and averaged across the sections using the ImageJ software by a blind investigator to the condition. Estimation of nigral cell loss was assessed by quantifying the number of TH‐immunopositive neurons of the SNc in 360 μm‐spaced sections for each animal.

pERK in CA1 = experiment: pERK in hippocampal CA1 of Tg2576 mice; type: in vivo, mouse; settings: for pERK in hippocampal CA1 (Fig 5 panel j): individual animals
Protocol: Immunohistochemistry was performed as described in Papale et al ([2016]). Briefly, 1 h after blocking in 5% normal goat serum and 0.1% Triton X‐100 solution, free‐floating sections were incubated overnight at 4°C with one of the following primary antibodies: anti‐phospho‐p44/42 MAP kinase (Thr202/Tyr204) (1:200, Cell Signaling Technology #9101), anti‐phospho–Elk‐1 (Ser383) (1:100, Cell Signaling #9181), anti‐phospho‐Kv4.2 (Thr607)‐R (1:100, Santa Cruz sc22254‐R), anti‐phospho‐MSK‐1 (1:100 Cell Signaling Technology #9595), anti‐phospho‐MEK1/2 (Ser218/222) (1:100, sc‐7995 Santa Cruz Biotechnology), c‐Fos (1:100, sc‐52 Santa Cruz Biotechnology), tyrosine Hydroxylase (monoclonal 1:1,000, Sigma Aldrich, Italy) and anti‐DARPP‐32 (H3) (1:100, Santa Cruz Biotechnology, #sc‐271111) overnight at 4°C. Sections were then incubated with biotinylated goat anti‐rabbit IgG (1:200, Vector Laboratories) or biotinylated goat anti‐mouse (1:200, Vector Laboratories) for 2 h. The classic avidin‐peroxidase complex (ABC, Vector, UK) protocol was applied, using 3,3′‐diaminobenzidine (DAB, Sigma) as a chromogen.
Tg2576 mice were administered with RB5 or Scramble (20 mg/kg i.p.) for either 7 days, for IHC analysis, or with a single injection (20 mg/kg i.p.), for behavioral analysis.

GRKKRRQRRRPPQGGGGGEPRRTEGVGPGVPGEVEMVKGQPFDV [RB5, six D-amino acids, acetylated N-terminus]
half-life (suggested by duration of striatal ERK phosphorylation) (p-ERK in dorsal striatum): 6 to 12 h
ERK phosphorylation in hippocampal CA1 (pERK in CA1; Tg2576 mice, 7 months old, 20 mg/kg i.p. for 7 days): restored ERK phosphorylation
pERK in hippocampal CA1 (Fig 5 panel j) (pERK in CA1; Tg2576 mice): 12.58 and 9.08 and 13.47 and 9.49 and 10.2 and 10.95 and 9.29 and 11.78
pERK in hippocampal CA1 (Fig 5 panel j) (pERK in CA1; WT mice): 8.46 and 10.53 and 9.48 and 11.97 and 13.27 and 10.48 and 8.7
